Source: PubChem BioAssay (NCI)
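Results reflect a 48-hour exposure of cells in 96-well plates to compound at five concentrations. The concentration for full growth arrest is given as TGI.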

Legend:
Assay in all cases: NCI tumour cell line growth inhibition, 48 h
SK-MEL-28 melanoma = test system: SK-MEL-28 melanoma
XF 498 CNS = test system: XF 498 CNS
MDA-N = test system: MDA-N
SNB-78 CNS = test system: SNB-78 CNS
M19-MEL melanoma = test system: M19-MEL melanoma
DMS 114 small cell lung = test system: DMS 114 small cell lung
P388/ADR leukemia = test system: P388/ADR leukemia
KM20L2 colon = test system: KM20L2 colon
DMS 273 small cell lung = test system: DMS 273 small cell lung
SN12K1 renal = test system: SN12K1 renal
DLD-1 colon = test system: DLD-1 colon
P388 leukemia = test system: P388 leukemia
HOP-18 NSCLC = test system: HOP-18 NSCLC
RXF-631 renal = test system: RXF-631 renal
LXFL 529 NSCLC = test system: LXFL 529 NSCLC

O=C[C@@H](CO)O[C@H](C=O)c1c[nH]c(=O)[nH]c1=O
TGI (SK-MEL-28 melanoma): 237 µM
TGI (XF 498 CNS): 86.7 µM
TGI (MDA-N): 307 µM
TGI (SNB-78 CNS): 890 µM
TGI (M19-MEL melanoma): 406 µM
TGI (DMS 114 small cell lung): 232 µM
TGI (P388/ADR leukemia): 373 µM
TGI (KM20L2 colon): 310 µM
TGI (DMS 273 small cell lung): 265 µM
TGI (SN12K1 renal): 183 µM
TGI (DLD-1 colon): 493 µM
TGI (P388 leukemia): 307 µM
TGI (HOP-18 NSCLC): 267 µM

Cc1c2cc[n+](C)cc2c(C)c2c1sc1ccccc12
TGI (SK-MEL-28 melanoma): 6.15 µM
TGI (RXF-631 renal): 14.4 µM
TGI (XF 498 CNS): 2.69 µM
TGI (MDA-N): 11.3 µM
TGI (SNB-78 CNS): 8.41 µM
TGI (M19-MEL melanoma): 4.04 µM
TGI (LXFL 529 NSCLC): 5.13 µM
TGI (DMS 114 small cell lung): 2.57 µM
TGI (KM20L2 colon): 31.8 µM
TGI (DMS 273 small cell lung): 7 µM
TGI (DLD-1 colon): 51.2 µM
TGI (HOP-18 NSCLC): 36.2 µM

COC(=O)[C@@]12C(=O)C=CC(=O)[C@@H]1C1C(=CC2COC(C)=O)O[C@@H]2OC3(CCCCC3)O[C@H]12 (some centres not stated)
TGI (SK-MEL-28 melanoma): 32.7 µM
TGI (RXF-631 renal): 50 µM
TGI (XF 498 CNS): 26.3 µM
TGI (MDA-N): 25.1 µM
TGI (SNB-78 CNS): 51 µM
TGI (M19-MEL melanoma): 29.6 µM
TGI (LXFL 529 NSCLC): 15 µM
TGI (DMS 114 small cell lung): 13.5 µM
TGI (KM20L2 colon): 31.8 µM
TGI (DMS 273 small cell lung): 23.6 µM
TGI (DLD-1 colon): 22.7 µM
TGI (HOP-18 NSCLC): 24.9 µM
